Assay results: patent US7537891B2, “Identification of polynucleotides for predicting activity of compounds that interact with and/or modulate protein tyrosine kinases and/or protein tyrosine kinase pathways in breast cells” (Bristol-Myers Squibb Company, priority 2002, dated 2009)

Tests used:
[1] = tested on: polynucleotide expression in breast cell lines; assay: Drug treatment study with expression profiling in 11 breast cell lines; format: cell-based, human; settings: 0.4 μM BMS-A, 24 hours; only in sensitive breast cell lines
Procedure: Eleven breast cell lines (5 sensitive and 6 resistant cell lines as indicated in bold in the Table 1) were used in a drug treatment study. Cells were treated with or without the BMS-A compound (0.4 μM) in 0.1% DMSO for 24 hours. Expression profiling was performed, the polynucleotide expression of a cell line treated with drug was compared pair-wisely to the polynucleotide expression of the same cell line without drug treatment. […]
Cells were treated with or without the BMS-A compound (0.4 μM) in 0.1% DMSO for 24 hours. Expression profiling was performed, and the data were analyzed using GeneChip® Expression Analysis software MAS 5.0 (Affymetrix, Santa Clara, Calif.). […] A change in p-value was calculated, indicating an increase, decrease or no change in polynucleotide expression. […]
The breast cells were grown under standard cell culture conditions: RPMI 1640 supplemented to contain 10% fetal bovine serum, 100 IU/ml penicillin, […], 2 mM L-glutamine and 10 mM Hepes (all from GibcoBRL, Rockville, Md.). […] The quality of the RNA was assessed by measuring the 28s:18s ribosomal RNA ratio using an Agilent 2100 bioanalyzer (Agilent Technologies, Rockville, Md.). The concentration of total RNA was determined spectrophotometrically. […]

[2] = tested on: ZR-75-30 breast cell line; assay: In vitro cytotoxicity assay (MTS); format: cell-based, human; design: key to True Class: “S” represents Sensitive; “R” represents Resistant
Procedure: (§1) The protein tyrosine kinase inhibitor compound (described in international application WO 00/62778, published Oct. 26, 2000) was tested for cytotoxicity in vitro against a panel of twenty-three human breast cell lines available from the American Type Culture Collection, ATCC, except H3396, which was obtained from Pacific Northwest Research Institute, Seattle Wash. The MCF7/Her2 cell line was established by stable transfection of MCF7 cells with the HER2 gene. Cytotoxicity was assessed in cells by the MTS (3-(4,5-dimethylthiazol-2-yl)-5-(3-carboxymethoxyphenyl)-2-(4-sulphenyl)-2H-tetrazolium, inner salt) assay (T. L. Riss et al., 1992, Mol. Biol. Cell, 3 (Suppl.):184a).
(§2) To carry out the assays, the breast cells were plated at 4,000 cells/well in 96 well microtiter plates, and 24 hours later, serially diluted drugs were added. The concentration range for the protein tyrosine kinase inhibitor compound BMS-A used in the cytotoxicity assay was from 5 μg/ml to 0.0016 μg/ml (roughly 10 μM to 0.0032 μM).
(§3) The cells were incubated at 37° C. for 72 hours at which time the tetrazolium dye, MTS (333 μg/ml final concentration), in combination with the electron coupling agent phenazine methosulfate (25 μM final concentration), was added. A dehydrogenase enzyme in live cells reduces the MTS to a form that absorbs light and can be quantified spectrophotometrically at 492 nM. The greater the absorbency the greater the number of live cells. The results are expressed as an IC50, which is the drug concentration required to inhibit cell proliferation (i.e. absorbance at 492 nm) to 50% of that of untreated control cells. The mean IC50 and standard deviation (SD) from multiple tests for each cell line were calculated.

HCC1954 breast cell line = assay: In vitro cytotoxicity assay (MTS); format: cell-based, human; design: key to True Class: “S” represents Sensitive; “R” represents Resistant
Procedure: as §1, §2, §3

HCC1419 breast cell line = assay: In vitro cytotoxicity assay (MTS); format: cell-based, human; design: key to True Class: “S” represents Sensitive; “R” represents Resistant
Procedure: as §1, §2, §3

ZR-75-1 breast cell line = assay: In vitro cytotoxicity assay (MTS); format: cell-based, human; design: key to True Class: “S” represents Sensitive; “R” represents Resistant
Procedure: as §1, §2, §3

H3396 breast cell line = assay: In vitro cytotoxicity assay (MTS); format: cell-based, human; design: key to True Class: “S” represents Sensitive; “R” represents Resistant
Procedure: as §1, §2, §3

PC3 prostate cell line = assay: Sensitivity of PC3 prostate cell line; format: cell-based
[3] = 72 hours, mean of 2 to 5 determinations, read-out: mean IC50 (μM) to BMS-A
[4] = assigned as in Table 1, based on the IC50 results for BMS-A
[5] = resistance/sensitivity to BMS-A based on IC50

## Cc1nc(Nc2ncc(C(=O)Nc3c(C)cccc3Cl)s2)cc(N2CCN(CCO)CC2)n1 [BMS-A]
[1]
  EphA2 polynucleotide expression: down regulated
  caveolin-2 polynucleotide expression: down regulated
[2]; ZR-75-30, 72 hours, mean of 2 to 5 determinations, read-out: mean IC50 (μM) to BMS-A
  IC50: 9.26 µM
[2]; ZR-75-30, resistance/sensitivity to BMS-A based on IC50
  Classification: Resistant (those having a log10(IC50) above the mean log10(IC50) were considered to be resistant)
[2]; Zr-75-30, assigned as in Table 1, based on the IC50 results for BMS-A
  True Class: R
HCC1954 breast cell line; [3]
  IC50: 0.0242 µM
HCC1954 breast cell line; [4]
  True Class: S
HCC1954 breast cell line; [5]
  Classification: Sensitive (The cell lines with a log10(IC50) below the mean log10(IC50) were defined as sensitive to the compound)
HCC1419 breast cell line; [3]
  IC50: 2.51 µM
HCC1419 breast cell line; [4]
  True Class: R
HCC1419 breast cell line; [5]
  Classification: Resistant (those having a log10(IC50) above the mean log10(IC50) were considered to be resistant)
ZR-75-1 breast cell line; ZR-75-1, 72 hours, mean of 2 to 5 determinations, read-out: mean IC50 (μM) to BMS-A
  IC50: > 9.52 µM
ZR-75-1 breast cell line; ZR-75-1, resistance/sensitivity to BMS-A based on IC50
  Classification: Resistant (those having a log10(IC50) above the mean log10(IC50) were considered to be resistant)
ZR-75-1 breast cell line; Zr-75-1, assigned as in Table 1, based on the IC50 results for BMS-A
  True Class: R
H3396 breast cell line; [3]
  IC50: 8.2 µM
H3396 breast cell line; [4]
  True Class: R
H3396 breast cell line; [5]
  Classification: Resistant (those having a log10(IC50) above the mean log10(IC50) were considered to be resistant)
PC3 prostate cell line
  sensitivity of PC3 prostate cell line to BMS-A: very sensitive
